The values that follow come from publication PMC7667638 (Journal of Medicinal Chemistry, 2020).

Where two headings read alike, the source gives them in different places.

For experiment [1], the target named is T1, hNaV1.4 (Homo sapiens, UniProt P35499). Nature of the experiment: cell-based. It counts as cell-based.
Experiment [2] concerns the target T2, hNaV1.7 (Homo sapiens, UniProt Q15858). Nature of the experiment: cell-based. It counts as cell-based.
In experiment [3] the target is T1, hNaV1.4. In words: cell-based. Particulars: for IC50: SEM.
Experiment [4] has as its target T2, hNaV1.7. Nature of the experiment: cell-based. The settings on record: SEM.
Experiment [5] has as its target T2, hNaV1.7. The settings on record: SEM; cited from earlier work.
Experiment [6] addresses T1, hNaV1.4. The settings on record: cited from earlier work.
The subject of a further experiment is rNaV1.4. Particulars: read-out: IC50 (nM ± SEM), rat NaV1.4; cited from earlier work.

T2 sequence (Q15858 whole entry, looked up): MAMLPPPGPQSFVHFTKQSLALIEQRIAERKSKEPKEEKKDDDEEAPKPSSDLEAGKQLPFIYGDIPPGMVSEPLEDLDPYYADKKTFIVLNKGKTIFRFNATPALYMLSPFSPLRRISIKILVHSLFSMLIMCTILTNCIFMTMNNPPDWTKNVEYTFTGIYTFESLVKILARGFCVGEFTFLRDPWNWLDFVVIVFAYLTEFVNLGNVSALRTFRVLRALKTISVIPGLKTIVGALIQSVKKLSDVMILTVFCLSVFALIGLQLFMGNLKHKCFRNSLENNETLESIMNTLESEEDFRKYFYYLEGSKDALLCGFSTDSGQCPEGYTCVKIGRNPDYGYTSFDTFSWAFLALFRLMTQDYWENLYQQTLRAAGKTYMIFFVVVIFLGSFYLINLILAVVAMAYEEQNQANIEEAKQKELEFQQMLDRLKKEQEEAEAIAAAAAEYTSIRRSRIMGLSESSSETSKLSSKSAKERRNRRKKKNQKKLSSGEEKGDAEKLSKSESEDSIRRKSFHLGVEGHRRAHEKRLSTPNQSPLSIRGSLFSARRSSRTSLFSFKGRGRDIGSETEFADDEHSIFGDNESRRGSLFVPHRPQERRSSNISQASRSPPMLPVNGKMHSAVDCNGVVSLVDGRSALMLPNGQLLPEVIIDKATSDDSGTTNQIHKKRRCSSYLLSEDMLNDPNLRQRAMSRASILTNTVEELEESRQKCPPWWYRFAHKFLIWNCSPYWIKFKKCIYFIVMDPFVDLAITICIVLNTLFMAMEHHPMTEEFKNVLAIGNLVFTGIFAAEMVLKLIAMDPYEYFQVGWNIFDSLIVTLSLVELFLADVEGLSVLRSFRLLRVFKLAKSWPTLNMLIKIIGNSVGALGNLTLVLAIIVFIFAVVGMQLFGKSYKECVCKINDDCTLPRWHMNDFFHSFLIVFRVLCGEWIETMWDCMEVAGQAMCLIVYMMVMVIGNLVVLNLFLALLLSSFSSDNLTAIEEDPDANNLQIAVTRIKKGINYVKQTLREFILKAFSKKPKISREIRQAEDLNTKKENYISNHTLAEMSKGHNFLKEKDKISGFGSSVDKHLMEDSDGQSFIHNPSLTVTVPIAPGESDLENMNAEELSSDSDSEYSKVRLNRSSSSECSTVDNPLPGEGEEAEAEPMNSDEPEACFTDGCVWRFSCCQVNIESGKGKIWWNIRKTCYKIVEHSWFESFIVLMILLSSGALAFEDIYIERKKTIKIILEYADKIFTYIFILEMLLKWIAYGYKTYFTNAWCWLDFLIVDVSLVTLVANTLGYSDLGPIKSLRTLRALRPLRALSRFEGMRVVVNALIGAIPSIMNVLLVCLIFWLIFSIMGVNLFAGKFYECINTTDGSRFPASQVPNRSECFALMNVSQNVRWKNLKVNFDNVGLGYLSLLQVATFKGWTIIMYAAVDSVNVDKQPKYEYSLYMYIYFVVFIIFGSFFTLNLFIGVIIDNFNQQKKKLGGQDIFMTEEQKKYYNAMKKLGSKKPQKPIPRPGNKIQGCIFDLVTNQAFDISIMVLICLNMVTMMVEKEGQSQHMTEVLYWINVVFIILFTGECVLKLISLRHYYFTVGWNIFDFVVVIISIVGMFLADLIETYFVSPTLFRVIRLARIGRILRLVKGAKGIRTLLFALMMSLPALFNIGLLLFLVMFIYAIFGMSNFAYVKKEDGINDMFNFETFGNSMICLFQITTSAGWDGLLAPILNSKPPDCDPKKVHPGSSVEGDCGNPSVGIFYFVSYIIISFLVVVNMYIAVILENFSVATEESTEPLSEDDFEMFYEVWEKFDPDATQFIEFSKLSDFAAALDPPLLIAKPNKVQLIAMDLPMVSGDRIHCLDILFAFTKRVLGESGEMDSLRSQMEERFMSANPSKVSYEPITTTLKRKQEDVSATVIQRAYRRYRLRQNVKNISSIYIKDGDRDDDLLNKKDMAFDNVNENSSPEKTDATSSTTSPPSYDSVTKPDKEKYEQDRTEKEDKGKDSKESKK
T1 sequence (P35499 whole entry, looked up): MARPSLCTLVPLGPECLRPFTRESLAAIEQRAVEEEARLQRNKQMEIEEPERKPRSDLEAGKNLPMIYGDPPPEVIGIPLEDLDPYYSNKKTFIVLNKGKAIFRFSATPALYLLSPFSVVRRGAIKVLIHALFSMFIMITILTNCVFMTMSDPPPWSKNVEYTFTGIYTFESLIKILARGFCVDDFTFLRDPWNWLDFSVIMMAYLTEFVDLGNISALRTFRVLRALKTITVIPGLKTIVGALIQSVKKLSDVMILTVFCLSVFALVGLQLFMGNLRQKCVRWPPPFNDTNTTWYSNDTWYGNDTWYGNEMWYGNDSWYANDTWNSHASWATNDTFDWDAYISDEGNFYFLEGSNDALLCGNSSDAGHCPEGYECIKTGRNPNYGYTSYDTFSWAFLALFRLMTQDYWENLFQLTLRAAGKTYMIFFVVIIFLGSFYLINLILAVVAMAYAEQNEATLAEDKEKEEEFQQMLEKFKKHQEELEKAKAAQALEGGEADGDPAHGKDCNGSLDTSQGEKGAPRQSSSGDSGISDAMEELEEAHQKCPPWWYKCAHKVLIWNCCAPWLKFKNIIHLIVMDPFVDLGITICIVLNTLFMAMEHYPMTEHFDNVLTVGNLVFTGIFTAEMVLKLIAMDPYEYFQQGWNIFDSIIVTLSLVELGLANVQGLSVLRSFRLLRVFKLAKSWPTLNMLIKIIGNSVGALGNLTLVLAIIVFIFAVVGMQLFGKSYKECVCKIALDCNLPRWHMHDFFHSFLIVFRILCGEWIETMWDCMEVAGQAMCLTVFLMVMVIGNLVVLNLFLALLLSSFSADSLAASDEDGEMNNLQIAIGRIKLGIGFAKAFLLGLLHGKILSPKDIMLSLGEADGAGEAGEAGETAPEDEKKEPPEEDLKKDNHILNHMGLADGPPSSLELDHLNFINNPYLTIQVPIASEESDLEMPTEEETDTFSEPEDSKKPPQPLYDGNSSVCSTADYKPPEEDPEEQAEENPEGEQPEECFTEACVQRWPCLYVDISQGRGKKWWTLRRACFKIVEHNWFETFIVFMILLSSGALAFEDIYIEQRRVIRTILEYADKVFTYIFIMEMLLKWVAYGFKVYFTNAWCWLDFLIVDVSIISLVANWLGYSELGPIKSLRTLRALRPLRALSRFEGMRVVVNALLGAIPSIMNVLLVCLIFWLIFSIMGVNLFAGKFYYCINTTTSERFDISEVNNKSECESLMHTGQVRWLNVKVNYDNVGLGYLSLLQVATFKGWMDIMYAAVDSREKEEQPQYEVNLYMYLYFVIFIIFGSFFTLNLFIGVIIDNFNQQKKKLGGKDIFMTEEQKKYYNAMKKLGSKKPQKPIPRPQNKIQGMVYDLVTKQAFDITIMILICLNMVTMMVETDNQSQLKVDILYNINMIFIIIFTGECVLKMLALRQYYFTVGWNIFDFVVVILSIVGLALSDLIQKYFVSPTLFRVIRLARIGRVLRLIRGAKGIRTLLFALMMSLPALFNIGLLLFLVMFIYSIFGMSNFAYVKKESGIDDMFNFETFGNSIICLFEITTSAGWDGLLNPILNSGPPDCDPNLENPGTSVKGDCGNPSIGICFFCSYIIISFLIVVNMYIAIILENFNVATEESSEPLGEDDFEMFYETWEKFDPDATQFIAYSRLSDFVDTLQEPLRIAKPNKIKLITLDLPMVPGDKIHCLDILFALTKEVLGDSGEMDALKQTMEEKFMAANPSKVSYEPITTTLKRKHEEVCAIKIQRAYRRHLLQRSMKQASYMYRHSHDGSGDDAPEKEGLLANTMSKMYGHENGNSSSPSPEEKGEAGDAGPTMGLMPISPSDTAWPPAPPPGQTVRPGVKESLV

As usually defined, the koff is the first-order rate constant of dissociation. In general, kon refers to a measure of how fast the partners come together. By IC50 is commonly meant the concentration needed to halve the response being measured. As for `[N-]=[N+]=NCCCC[C@H](N)C(=O)N[C@H]1CSSC[C@@H]2NC(=O)[C@H](CCCNC(=N)N)NC(=O)[C@H](CO)NC(=O)[C@H](Cc3c[nH]cn3)NC(=O)[C@H](CC(=O)O)NC(=O)[C@H](CCCNC(=N)N)NC(=O)[C@@H]3CSSC[C@H](NC1=O)C(=O)N[C@@H](CC(N)=O)C(=O)N[C@@H](CSSC[C@@H](C(N)=O)NC2=O)C(=O)N[C@@H](CO)C(=O)N[C@@H](CO)C(=O)N[C@@H](CCCCN)C(=O)N[C@@H](Cc1c[nH]c2ccccc12)C(=O)N3` [AzK-KIIIA], on hNaV1.4 [1], the “recovery of sodium current at end of washout, hNaV1.4” value is about 40%. Also, the koff at hNaV1.4 [1] (read-out: koff, hNaV1.4, SEM) was determined as 0.00118 s⁻¹; on hNaV1.7 [2] (read-out: koff, hNaV1.7, SEM), 0.000392 s⁻¹. For the same compound, the kon on hNaV1.4 [1] (read-out: kon, hNaV1.4) was 39700 M⁻¹ s⁻¹; at hNaV1.7 [2] (read-out: kon, hNaV1.7), 16200 M⁻¹ s⁻¹. On hNaV1.7 [2], the “recovery of sodium current at end of washout, hNaV1.7” value came out at 12.6 ± 1.2%. In addition, the “IC50 relative to 1, hNaV1.4” value against hNaV1.4 [3] is recorded as 3.6× ↑. For the same compound, the IC50 against hNaV1.4 [3] came to 32 ± 10 nM; against hNaV1.7 [4] it was 96 ± 41 nM.

Consider `N=C(N)NCCC[C@@H]1NC(=O)[C@H](CO)NC(=O)[C@H](Cc2c[nH]cn2)NC(=O)[C@H](CC(=O)O)NC(=O)[C@H](CCCNC(=N)N)NC(=O)[C@@H]2CSSC[C@@H]3NC(=O)[C@@H](NC(=O)[C@@H](N)CCCCn4cc(C[C@H](N)C(=O)NCCOCCOCCOCCOCCC(=O)NCCOCCOCCOCCOCCC(=O)NCCOCCOCCOCCOCCC(=O)NCCOCCOCCOCCOCCC(=O)NN)nn4)CSSC[C@H](NC1=O)C(=O)N[C@H](C(N)=O)CSSC[C@H](NC(=O)[C@H](CC(N)=O)NC3=O)C(=O)N[C@@H](CO)C(=O)N[C@@H](CO)C(=O)N[C@@H](CCCCN)C(=O)N[C@@H](Cc1c[nH]c3ccccc13)C(=O)N2` [[K-KIIIA]-[PEG80]], for which, at hNaV1.4 [3], the “IC50 relative to 1, hNaV1.4” value worked out at 16.0× ↑ and the half-maximal inhibitory concentration (IC50) worked out at 144 ± 46 nM.

On hNaV1.7 [4], `N=C(N)NCCC[C@@H]1NC(=O)[C@H](CO)NC(=O)[C@H](Cc2c[nH]cn2)NC(=O)[C@H](CC(=O)O)NC(=O)[C@H](CCCNC(=N)N)NC(=O)[C@@H]2CSSC[C@@H]3NC(=O)[C@@H](N)CSSC[C@@H](C(N)=O)NC(=O)[C@H](CSSC[C@H](NC(=O)[C@H](CC(N)=O)NC3=O)C(=O)N[C@@H](CO)C(=O)N[C@@H](CO)C(=O)N[C@@H](CCCCN)C(=O)N[C@@H](Cc3c[nH]c4ccccc34)C(=O)N2)NC1=O` [µ-KIIIA-ox-p2] returned an IC50 of 154 ± 15 nM.

As to `N=C(N)NCCC[C@@H]1NC(=O)[C@H](CO)NC(=O)[C@H](Cc2c[nH]cn2)NC(=O)[C@H](CC(=O)O)NC(=O)[C@H](CCCNC(=N)N)NC(=O)[C@@H]2CSSC[C@@H]3NC(=O)[C@@H](N)CSSC[C@H](NC1=O)C(=O)N[C@H](C(N)=O)CSSC[C@H](NC(=O)[C@H](CC(N)=O)NC3=O)C(=O)N[C@@H](CO)C(=O)N[C@@H](CO)C(=O)N[C@@H](CCCCN)C(=O)N[C@@H](Cc1c[nH]c3ccccc13)C(=O)N2` [μ-KIIIA, μ-conotoxin KIIIA], the IC50 at hNaV1.7 [4] amounted to 132 ± 37 nM.

With “E1G, E4G, Y33W huwentoxin-IV [m3-HwTx-IV]”, the IC50 is 0.4 ± 0.1 nM on hNaV1.7 [5]; 369 ± 196 nM at hNaV1.4 [6] (SEM); 370 nM on hNaV1.4 [6] (read-out: IC50 (nM ± SEM), hNaV1.4).

On to μ-theraphotoxin-Hs2a [HwTx-IV], for which the IC50 in the experiment with rNaV1.4 was 400 nM.
